{"source": "patent US8889680B2", "about": "“Treatment or prevention of fungal infections with PDK1 inhibitors” (priority 2010, dated 2014)", "key": {"[1]": {"tested_on": "C. albicans clinical reference strain SC5314", "test": "Adenylate kinase (AK) release assay of yeast cell lysis", "assay_type": "cell-based, Candida albicans", "parameters": "dose or concentration left out as unconfirmed", "details": "extracellular AK activity relative to DMSO-treated cells", "experimental": "AK assays were performed according to a recently published protocol (Didone et al., Nat. Protocol. 5:1107-14 (2010)) using the 96-well plate version using the Toxi-Light Assay kit (Lonza; Basel, Switzerland). Luminescence was measured using a SpectraMax plate reader (Molecular Devices; Sunnyvale, Calif.). […] To identify PKIs that disrupt yeast cell wall integrity, a four-part screening strategy as outlined in FIG. 1A was designed. The primary screen in the approach detects molecules that cause yeast cells to lyse, a characteristic phenotype of yeast cell wall damage, by use of an assay that detects the release of adenylate kinase (AK) to the growth medium as a reporter of yeast cell lysis. […] Last, to select PKIs specific for the CWI signaling pathway, the set of hits were tested for their ability to block the activation of a transcriptional reporter of the CWI-signaling pathway. To rapidly survey a sample of well-characterized PKIs, the commercially available InhibitorSelect collection, a library of 80 PKIs with diverse mechanistic and structural characteristics, was utilized. C. albicans clinical reference strain SC5314 was screened against the InhibitorSelect library for molecules that caused a release of AK into the growth medium."}, "Candida spp.": {"tested_on": "Candida spp.", "test": "Antifungal susceptibility (microdilution MIC), Candida spp.", "assay_type": "cell-based", "experimental": "(§1) The antifungal activity of protein kinase inhibitors was determined using the Clinical and Laboratory Science Institute microdilution protocol M-27A2. Biofilm antifungal activity was determined using the protocol of Pierce et al. and is reported as MIC50S (Pierce et al., Nat. Protoc. 3:1494-1500 (2008)). Disk diffusion assays were performed as described previously (Roelants et al., Microbiology 150:3289-304 (2004)).\n(§2) (FIG. 3A). […] Since the echinocandin class of cell wall-targeted 1,3-β-glucan synthase inhibitors is not active against C. neoformans, this represents one of the few cell wall-targeted molecules with activity against this important pathogen."}, "C. glabrata": {"tested_on": "C. glabrata", "test": "Antifungal susceptibility (microdilution MIC), C. glabrata", "assay_type": "cell-based, Candida glabrata", "experimental": "as §1, §2"}, "[2]": {"tested_on": "CWI pathway reporter Rlm1-lacZ", "test": "β-Galactosidase CWI pathway reporter assay (Rlm1-lacZ)", "assay_type": "cell-based", "details": "sub-inhibitory concentrations (1/2 MIC), S. cerevisiae", "experimental": "Bars indicate mean fold change in Miller units of β-galactosidase activity relative to logarithmic phase cells without calcofluor or PKI. Error bars indicate standard deviation of three independent trials performed in triplicate. […] The percentage of cells with PI uptake was determined by fluorescence.\nLogarithmic phase S. cerevisiae (BY4741) cells harboring the pRLM1-lacZ plasmid were transferred to a 96-well plate, and treated with Calcofluor white ([…])+/−protein kinase inhibitor at sub-inhibitory concentrations (1/2MIC). The cells were incubated at room temperature for 5 hours and processed for β-galactosidase activity using the ThermoScientific Yeast β-galactosidase kit according to the manufacturer's instructions (Pierce; Rockford, Ill.). β-galactosidase activity was determined by measuring OD420 using a SpectraMax Plate reader (Molecular Devices) and expressed as fold change in Miller units (nmole/mg/min) relative to untreated cells. Each experiment was performed in duplicate with three independent isolates.\nThe novel, antifungal PKIs identified in the primary screen were evaluated for their ability to block CWI pathway signaling using a reporter construct that contains two copies of the consensus binding site for the CWI-pathway-regulated transcription factor Rlm1 fused to the β-galactosidase gene (Jung et al., Mol. Microbiol. 46:781-9 (2002)). […]"}, "[3]": {"tested_on": "Pkh1/2-dependent phosphorylation of Pil1-GFP", "test": "Pil1-GFP phosphorylation immunoblot", "assay_type": "cell-based, S. cerevisiae", "details": "sub-inhibitory KP-372-1 (1/2 MIC); cells with endogenous Pkh1/2 and cells over-expressing Pkh2; Western blot"}, "[4]": {"tested_on": "eisosomes in S. cerevisiae cells", "test": "Eisosome pattern by fluorescence microscopy (Pil1-GFP)", "assay_type": "cell-based", "details": "KP-372-1 (1/2 MIC), within one hour of treatment, versus DMSO", "experimental": "Light and fluorescence microscopy was performed using a Nikon ES80 epi-fluorescence microscope equipped with a CoolSnap CCD camera. Images were collected using NIS-Elements Software and processed in PhotoShop. All images were collected with identical exposure settings and equally processed with respect to tone and contrast.\nThe micrographs of the KP-372-1-treated cells closely match those previously reported (Luo et al., J. Biol. Chem. 283:10433-44 (2008)) and, consequently, support a model in which Pil1 phosphorylation is required for eisosome assembly/stabilization."}, "[5]": {"tested_on": "fluid-phase endocytosis in S. cerevisiae", "test": "Lucifer yellow (LY) endocytosis assay", "assay_type": "cell-based", "details": "sub-lethal KP-372-1, 1 hour pre-treatment, 1 hour time course", "experimental": "LY uptake assays were performed as described previously (Dulic et al., Methods Enzymol. 194:697-710 (1991)) using LY obtained from Sigma (St. Louis, Mo.). […] Cells were then exposed to LY and aliquots were removed at 15 minute intervals. Endocytosis was stopped by the addition of sodium azide/succinate and the percentage of cells with vacuolar LY staining was determined by fluorescence microscopy.\nPkh kinases are also important for endocytosis in yeast. […] LY binds to the plasma membrane and is transported to the vacuole (yeast lysosomal homolog) in PKH-dependent fashion."}, "[6]": {"tested_on": "C. neoformans PKH2-01 and PKH2-02 deletion mutants", "test": "Disk diffusion assay, C. neoformans mutants", "assay_type": "cell-based, Cryptococcus neoformans", "details": "30° C.", "experimental": "Plates were incubated at 30° C. for 3 days prior to photography.\nas §1"}, "[7]": {"tested_on": "leukemic and glioblastoma cells", "details": "cited from earlier work"}, "normal cells": {"tested_on": "normal cells", "details": "cited from earlier work"}}}
{"compound": "O=C1c2ccccc2-c2nc3nnnn3nc21.O=C1c2ccccc2-c2nn3nnnc3nc21", "note": "[KP-372-1]", "values": [{"measurement": "Fold increase in AK release", "setting": "[1]", "value": 4, "unit": "Fold"}, {"measurement": "MIC", "setting": "Candida spp.; Candida spp., FIG. 7 legend", "value": "3 to 25", "unit": "µg/mL"}, {"measurement": "antifungal activity (in words)", "setting": "Candida spp.; other Candida spp. compared with C. albicans and C. glabrata", "value": "less so"}, {"measurement": "antifungal activity (in words)", "setting": "C. glabrata", "value": "highly active"}, {"measurement": "Rlm1-lacZ reporter activity induced by Calcofluor white", "setting": "[2]", "value": "completely abolished reporter activity"}, {"measurement": "phosphorylation of Pil1-GFP", "setting": "[3]", "value": "rapidly blocked"}, {"measurement": "number of peripheral eisosomes", "setting": "[4]", "value": "dramatically decreased"}, {"measurement": "Lucifer yellow uptake (vacuolar localization)", "setting": "[5]", "value": "uptake is inhibited at early time points"}, {"measurement": "sensitivity versus wild type", "setting": "[6]; C. neoformans PKH2-01 mutant", "value": "slightly more sensitive"}, {"measurement": "sensitivity versus wild type", "setting": "[6]; C. neoformans PKH2-02 mutant", "value": "significantly more sensitive"}, {"measurement": "activity against leukemic and glioblastoma cells", "setting": "[7]", "value": "potent activity"}, {"measurement": "cytotoxicity toward normal cells", "setting": "normal cells", "value": "without significant cytotoxicity"}]}
